Data as given in PubChem BioAssay (NCI).
Several values for one entry are separate records, joined by “and”; a condition that tells them apart may be missing. Identical values can stand only once.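 Dose response: 5 concentrations. Exposure: 48 h. Format: 96-well plates. Endpoint: linear interpolation; highest concentration if not reached. GI50: concentration for 50% inhibition of growth. TGI: total growth inhibition.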

Experiments:
Test in all cases: NCI anticancer screen, dose series, 48 h
[1] = system: A549 NSCLC
[2] = system: EKVX NSCLC
[3] = system: HOP-92 NSCLC
[4] = system: K-562 leukemia
[5] = system: MCF7 breast
[6] = system: MOLT-4 leukemia
[7] = system: NCI-H460 lung
[8] = system: OVCAR-4 ovarian
[9] = system: OVCAR-5 ovarian
[10] = system: SF-268 CNS
[11] = system: SF-539 CNS
[12] = system: SN12C renal
[13] = system: CAKI-1 renal
[14] = system: TK-10 renal
[15] = system: HS 578T breast

Structure (SMILES)	TGI [1]	TGI [2]	TGI [3]	TGI [4]	TGI [5]	TGI [6]	TGI [7]	TGI [8]	TGI [9]	TGI [10]	TGI [11]	TGI [12]	TGI [13]	TGI [14]	TGI [15]	GI50 [13]	GI50 [3]	GI50 [5]	GI50 [6]
Nc1c(S(=O)(=O)O)cc(S(=O)(=O)O)c2ccc(N=Nc3ccc(/C=C/c4ccc(N=Nc5ccc6c(S(=O)(=O)O)cc(S(=O)(=O)O)c(N)c6c5O)cc4S(=O)(=O)O)c(S(=O)(=O)O)c3)c(O)c12	> 100 µM	> 100 µM	> 100 µM	> 100 µM	> 100 µM	> 100 µM	> 100 µM	> 100 µM	> 100 µM	> 100 µM	> 100 µM	> 100 µM							
CC1(C)O[C@@H](C[C@]2(C#N)C[C@H](CCl)OC(C)(C)O2)C[C@@H](C#N)O1	> 100 µM	> 100 µM	> 100 µM	> 100 µM		> 100 µM	> 100 µM	> 100 µM	> 100 µM	> 100 µM	> 100 µM	> 100 µM	> 100 µM	> 100 µM					
COc1ccc(C)cc(=O)c1O	> 100 µM	> 100 µM	> 100 µM	> 100 µM		> 100 µM	> 100 µM	> 100 µM	> 100 µM	> 100 µM	> 100 µM	> 100 µM	> 100 µM	> 100 µM					
Cc1c2ccncc2c(C)c2c1[nH]c1ccc(OCCN(C)C)cc12	0.844 µM	1.51 µM	1.62 µM	5.21 µM	0.785 µM	0.157 µM	0.0921 µM	0.368 µM	1.59 µM	0.919 µM	2.38 µM	1.61 µM	1.89 µM						
O=c1[nH]c(=O)n(C2OC(CO)C(O)C2O)cc1OCCCc1ccccc1 (configuration not stated)	> 100 µM	> 100 µM			> 100 µM	> 100 µM	> 100 µM	> 100 µM	> 100 µM	> 100 µM	> 100 µM	> 100 µM	> 100 µM	> 100 µM	> 100 µM				
CN(C)CC1CCC(CN(C)C)C(=O)C1=O (configuration not stated)	25.1 µM	47.2 µM	3.81 µM	6.15 µM	8.6 µM	4.96 µM	36.4 µM	18.3 µM	30.9 µM	10.9 µM	12.6 µM	32.7 µM	3.82 µM	9.96 µM					
[N-]=[N+]=NCC(O)Cn1cnc2c(NC(=O)c3ccccc3)ncnc21 (configuration not stated)	> 100 µM	> 100 µM	> 100 µM	> 100 µM		> 100 µM	> 100 µM	> 100 µM	> 100 µM	> 100 µM	> 100 µM	> 100 µM	> 100 µM	> 100 µM					
S=C1SC(=Nc2ccccc2)C(=Nc2ccccc2)N1c1ccc2ccccc2c1				> 100 µM	> 100 µM			> 100 µM	> 100 µM			> 100 µM	> 100 µM		> 100 µM				
N/C(=N\N=C\c1ncccc1O)NO	> 100 µM	> 100 µM	> 100 µM	> 60.7 µM	> 100 µM	> 64.4 µM	> 100 µM	> 100 µM	> 100 µM	90.8 µM	59.1 µM	> 100 µM	96.8 µM						
Cc1ncc(COP(=O)(O)O)c(/C=C2\SC(=S)NC2=O)c1O	> 100 µM	> 100 µM	> 100 µM	> 100 µM	> 100 µM	> 100 µM	> 100 µM	> 100 µM	> 100 µM	> 100 µM	> 100 µM	> 100 µM	> 100 µM	> 100 µM					
NC(=O)CN1C=CCC(C(N)=O)=C1	> 100 µM	> 100 µM	> 100 µM	> 100 µM	> 100 µM	> 100 µM	> 100 µM	> 100 µM	> 100 µM	> 100 µM	> 100 µM	> 100 µM	> 100 µM						
N#Cc1c(N)nc2c3c1NC(=O)C(C(N)=O)C3c1ccccc1O2 (configuration not stated)	> 100 µM	> 100 µM	71.9 µM	> 100 µM	> 100 µM	> 100 µM	> 100 µM	> 100 µM	> 100 µM	> 100 µM	> 100 µM	> 100 µM	> 100 µM	> 100 µM					
CCSC1=CC2(O)N(CCc3ccc(OC)c(OC)c3)C(=O)CC2(C(=O)OC)CC1=O (configuration not stated)	> 100 µM	> 100 µM	29.7 µM	> 100 µM	40.3 µM	90.8 µM		> 100 µM	> 100 µM		78.7 µM	36.3 µM	> 100 µM	37.5 µM					
O=[Se](O)O	> 100 µM	15.7 µM		> 100 µM	> 100 µM	> 100 µM	> 49.9 µM	21.1 µM	4.82 µM	4.94 µM	2.56 µM	> 100 µM	97.1 µM	> 100 µM	> 100 µM				
C=C1C(C)C2C(Cc3ccccc3)NC(=O)C23OC(=O)/C=C\CC(=O)CCC(C)C/C=C/C3C1O (configuration not stated)	20.9 µM	10.1 µM	2.1 µM	5.79 µM	5.1 µM	3.83 µM	21.7 µM	7.39 µM	25.2 µM	7.48 µM	4.39 µM	5.93 µM	2.24 µM	0.722 µM		0.474 µM	0.345 µM	0.695 µM and 1.39 µM	1.01 µM
COc1nc(C#CC2CCCCC2)nc(OC)n1	16.4 µM	32.6 µM		28.4 µM	14.9 µM	> 100 µM	26.6 µM	27.3 µM	12.3 µM	20.4 µM	6.31 µM	11.1 µM	12.5 µM		17.7 µM				
O=[N+]([O-])/C(C(Cl)=C(Cl)Cl)=C(/Nc1cccc2cccnc12)n1nnc2ccccc21	> 100 µM	> 100 µM		> 100 µM	46.3 µM	> 100 µM	> 100 µM	45.7 µM	58.3 µM	37.4 µM	38.2 µM	39.5 µM	26.3 µM		33.3 µM				
